Tests used:
Format in all cases: cell-based, human
[1] = tested on: T cells; assay: Regulatory markers on T cells co-cultured with BiP-treated dendritic cells
Procedure: FIG. 11: Co-culture of T cells with BiP-treated dendritic cells (DC) upregulates regulatory markers. […] Mean ±standard deviation of three experiments is shown.
Intracellular staining was carried out with fixed cells incubated with 1% paraformaldehyde in IF buffer for 5 minutes at room temperature. The cells were washed twice with IF buffer containing 0.3% saponin for permeabilization. 0.3% saponin was then present in all IF buffer used thereafter. CTLA-4/CD152 (BD), FoxP3 (eBioscience) and indolamine 2,3-dioxygenase (Santa Cruz) and cytokines required intracellular staining. Antibodies were added at the pre-determined optimal concentration for 20 mins and then the cells were washed twice with IF buffer and analysed. Isotype controls, IgG1 and IgG2a (Becton Dickinson, Oxford, UK) were used in parallel. Cells were analysed on a FACScan cytometer using Cellquest software (Becton Dickinson, Oxford, UK).
T cells were purified from peripheral blood mononuclear cells and set up in culture with either allogeneic or autologous dendritic cells, which had been washed and irradiated, at a ratio of 10 T cells:1 DC. The cells were co-cultured in a 24 well plate in 1 ml/well, in RPMI 1640 supplemented with 10% foetal calf serum, for 4 days then the T cells were removed and washed before being investigated for the presence of T regulatory cells (see below)
Immunofluorescent staining was performed, as described previously (39), on DC harvested at day 7, T cells after 4 days co-culture with DC. Saturating concentrations of fluorescein isothiocyanate (FITC)-, phycoerythrin (PE) or peridium chlorophyll (Per-CP)-conjugated mAb were added recognizing CD14, CD86, CD80, HLA-DR, CD11c, CD1a, CD83, CD85j, IL-10 receptor; purity of the negatively selected MO and T cells was checked using CD3, CD4, CD14, CD20 and CD57 (all from Becton Dickinson/PharMingen (BD), Oxford, UK). Intracellular staining was carried out following fixation of cells with 1% paraformaldehyde for 5 minutes. Cells were then washed with immunofluorescence buffer (PBS/0.1% BSA/0.05% azide) containing 0.3% saponin. 0.3% saponin was then present in all solutions thereafter. CD152/CTLA-4 (BD, Oxford UK) and IDO (Santa Cruz, Autogen Bioclear, UK) were intracellular stains. Isotype controls, IgG1 and IgG2a (BD, Oxford, UK) were used in parallel. Cells were analysed on a FACScan/FACScalibur cytometers using Cellquest software (BD, Oxford, UK).

[2] = tested on: allogeneic T cells; assay: Allogeneic proliferative response to early BiP treated DC (tritiated thymidine uptake); settings: early DC 72 h; inhibitors 10 μM 2 h pre-treatment of monocytes; anti-IL-10 neutralizing antibody (FIG. 13A, B)
Procedure: Allogeneic responses by T cells in culture with irradiated (3,000 rads) early DC (eDC), after only 3d in culture with GM-CSF and IL-4 in the presence or absence of BiP (20 μg/ml) at a ratio of 10:1 PBMC:DC (105:10^4 cells/well). The results are shown as an allogeneic proliferative response (A) following addition of neutralizing anti-IL-10 ( 1/100 dilution) antibody and (B) the pre-treatment (2 h) of monocytes (MO) with p38 inhibitor, SB203580 (SB)(10 μM) or the ERK1/2 inhibitor, PD 98059 (PD)(10 μM), prior to the addition of GM-CSF and IL-4 to the cultures. The proliferation of PBMC to early DC following (C) the addition of BiP 24 h post addition of GM-CSF and IL-4. Proliferation was measured by uptake of tritiated thymidine and recorded as counts per minute (cpm). ELISA was used to detect IL-10 (D) in the culture supernatants and (E) by 7d cultured iDC/iDC(BiP) and fully matured mDC/mDC(BiP) differentiated as described in following 7d culture in GM-CSF and IL-4 with LPS (500 ng/ml) added for the final 2d.
(§1) To neutralize IL-10 within the cultures anti-IL-10 antibody (ATCC, Rockville, USA) was added at day 0 (5 μg/ml) to GM-CSF and IL-4 treated cultures in the presence and absence of BiP (20 μg/ml). Two specific cell-permeable inhibitors of the MAPK intracellular signalling pathways were used. SB203580 (SB)(10 μM)((Calbiochem, Darmstadt, Germany) inhibits p38 MAPK, and PD98059 (PD) (10 μM)(Calbiochem), an inhibitor of MAPK extracellular signal regulated kinase (ERK), were tested. MO were pre-treated with the inhibitors for 2 h before adding GM-CSF and IL-4 in the presence or absence of BiP.

[3] = tested on: IL-10; assay: IL-10 production by dendritic cell cultures (ELISA); settings: 3d GM-CSF and IL-4 with BiP 20 μg/ml; inhibitors 10 μM, anti-IL-10 added at day 0 (FIG. 13D)
Procedure: (§2) Supernatant samples were collected on day 1, 3 and 7 for iDC and from the final cultures of the T cells taken from the iDC/mDC-T cell allogeneic test system and set up with autologous cells to determine if there was any regulatory activity. The samples were aliquoted and frozen at −70° C. until required. Production IL-10 was quantified by ELISA using paired antibodies and recombinant standards (PharMingen, Oxford, UK) according to the recommendations of the manufacturer. In addition some were analysed by cytometric bead assay (BD, Oxford, UK) according to the manufacturers instructions.
as §1
as §2, with “of the pro-inflammatory cytokine, TNFα, and the anti-inflammatory cytokine, IL-10,” for “IL-10”

| Structure (SMILES) | proliferation of T cells in an allogeneic response after co-culture with 1MT ([1]; 1MT 200 μM added to co-cultures of T cells with autologous mDC or mDC(BiP)) | T cell expression of intracellular CTLA-4 in the presence of 1MT ([1]; 1MT 200 μM in mDC/mDC(BiP)-T cell co-cultures, n=3) | reversal of BiP's inhibitory activity on the allogeneic response [2] | IL-10 production by early DC(BiP) cultures [3] |
| --- | --- | --- | --- | --- |
| Cn1cc(C[C@H](N)C(=O)O)c2ccccc21 [1MT, 1 methyl tryptophan, reference compound] | increased proliferation by the T cells | significant reduction in T cell expression of CTLA-4 |  |  |
| COc1cccc(-c2cc(=O)c3ccccc3o2)c1N [PD98059, reference compound] |  |  | could not | did not inhibit IL-10 production |
| C[S+]([O-])c1ccc(-c2nc(-c3ccncc3)c(-c3ccc(F)cc3)[nH]2)cc1 (stereo not drawn) [SB203580, reference compound] |  |  | totally reversed BiP's inhibitory activity | not detected |
